Source: patent US7348151B1, “Method for the cellular high-throughput-detection of nuclear receptor ligand interactions” (priority 1998, dated 2008)
Like-named read-outs stand apart in the source and are kept apart here.

Tested on: ligand-binding domain of the human estrogen receptor (amino acids 282-595) fused to human Ha-Ras (L61) in cdc25-2 yeast cells
Type: cell-based
Details: for growth of cdc25-2-yeast cells: Glu medium + E (10^−5M)
From the text: Expression of a functional, membrane-associated Ras protein fused to a nuclear receptor and/or parts of one such can be detected by the fact that the yeast cells are able to grow irrespective of the presence of a functional GEF protein at said restrictive temperatures if a suitable ligand of the expressed nuclear receptor is present.
The basic vector used is a vector with a marker gene (Ura) and a galactose-inducible promoter (GALI) for the fusion gene to be expressed. As shown diagrammatically in FIG. 2, the DNA sequence to be expressed encodes:
1. a myristylation signal,
3. the human Ha-Ras (L61) which is constitutively active and which lacks the so-called CAAX box, the farnesylation signal for membrane localization.
Conventional yeast transformation and manipulation protocols (see, for example, Hill et al. (1991), NAR 19, 5791) were used. The cells were plated out either on a glucose minimal medium which contains the necessary amino acids and nucleotides (20 mg/l histidine, 100 mg/l leucine, 20 mg/l tryptophan, 20 mg/l uracil, 10 mg/l adenine sulfate), 2% glucose, 0.5% NH4SC4, 0.17% yeast extract and 4% agar, or on galactose medium (1.7 g/l yeast nitrogen without amino acids, 5 g/l ammonium sulfate, 30 g/l galactose (>99%) 20 g/l D-raffinose, 20 g/l glycerol (100%), 30 g/l Bacto Agar).
Clones were plated out on YPD medium (1% yeast extract, 2% Bacto tryptone and 2% glucose) as control. YPD medium contains no galactose, so that there ought to be no expression of the fusion protein.
Replica platings were carried out with velvet replica plater. After transformation with the nucleic acid vector described above, the cells were plated out on glucose plates and incubated at a non-restrictive temperature of 25° C. for three to four days.

estrogen was tested, and the “growth of cdc25-2-yeast cells” value (25° C. (non-restrictive)) was “+”, the “growth of cdc25-2-yeast cells” value (37° C. (restrictive), 12 to 36 h, OD 600) was “−” and the “cell reproduction of transformed clones” value (YPD medium (no galactose, no expression of the fusion protein) with addition of estrogen, control) was “no cell reproduction”.
